Columns and labels:
[1] = target: HPK1 (Homo sapiens (Human), UniProt Q92918); experiment: HPK1 Lantha Binding Assay (Lanth); details: 2 nM HPK1, 15 nM Tracer222, Morrison Ki fit, read-out: HPK1 Ki (nM), L = Lanth
Experimental: Example B2: HPK1 Lantha Binding Assay (“Lanth”)
Procedure: I. Compound Dilution:
The compounds to be tested were diluted by preparing 12.5 uL/well of 5 mM compound (100×) in columns 2 and 13 and 10 ul/well of DMSO in columns 3-12, 14-23, and wells A1-H1 and I24-P24 of the compound plate using a Bravo liquid handling platform. For the reference compound, the top concentration was 1 mM. To the plate was added 10 ul 2 mM staurosporine in wells J1-P1 and A24-H24. A 11 point 5-fold compound serial dilution was performed using the Bravo liquid handling platform. From the plate were transferred 2.5 ul of the solutions from column 2 and column 13 to the 10 ul of DMSO in columns 3 and 14 & so on. The compound plate was centrifuged at 2500 rpm for 1 min. From the compound plate was transferred 80 nl of the compounds into an assay plate using the Echo liquid handler system. One compound plate makes two assay plates. Each assay plate is sealed and stored in an N2 cabinet.
The following assay concentrations and times were used: 2 nM HPK1, 2 nM Eu-Anti-GST Ab, and 15 nM Tracer222, with 60 min incubation time.
III. HPK Lantha Binding Assay:
For the binding assay, 4 ul 2X HPK1 and Eu-anti-GST antibody were added to each well of the assay plate using a Multidrop reagent dispenser. The solutions were incubated in a 23 C incubator for 1 h. To each well of the assay plate was added 4 ul 2× Tracer-222 using a Multidrop reagent dispenser. The solutions were again incubated in a 23 C incubator for 1 h. The results of the assay were read using an Envision plate reader with the following parameters:TR_FRET, 340ex/615 and 665em; 100 usec Delay; and 200 usec integration.
Compound Ki was analyzed using Morrison ki fit model in XL-fit • a. fit=(1-((((E+x)+(Ki*(1+(S/Kd))))−(((((E+x)+(Ki*(1+(S/Kd))))^2)−((4*E)*x))^0.5))/(2*E))) • res=(y-fit) • b. Parameters: • E=enzyme concentration • S=Tracer222 concentration, Kd=Tracer222 Kd • All measurements reported using the same units (uM)
Exemplary compounds were tested in the binding assays.

[2] = target: HPK1 (Homo sapiens (Human), UniProt Q92918, S171E/T165E); experiment: HPK1-FL HTRF Enzymatic Assay (HTRF); assay type: biochemical; details: HPK full length T165E S171E 0.125 nM, ATP 1 mM, Biotin-SLP76 100 nM, read-out: HPK1 Ki (nM), H = HTRF
Sequence of HPK1 (Homo sapiens (Human), UniProt Q92918, S171E/T165E) (Q92918 whole entry T165E/S171E): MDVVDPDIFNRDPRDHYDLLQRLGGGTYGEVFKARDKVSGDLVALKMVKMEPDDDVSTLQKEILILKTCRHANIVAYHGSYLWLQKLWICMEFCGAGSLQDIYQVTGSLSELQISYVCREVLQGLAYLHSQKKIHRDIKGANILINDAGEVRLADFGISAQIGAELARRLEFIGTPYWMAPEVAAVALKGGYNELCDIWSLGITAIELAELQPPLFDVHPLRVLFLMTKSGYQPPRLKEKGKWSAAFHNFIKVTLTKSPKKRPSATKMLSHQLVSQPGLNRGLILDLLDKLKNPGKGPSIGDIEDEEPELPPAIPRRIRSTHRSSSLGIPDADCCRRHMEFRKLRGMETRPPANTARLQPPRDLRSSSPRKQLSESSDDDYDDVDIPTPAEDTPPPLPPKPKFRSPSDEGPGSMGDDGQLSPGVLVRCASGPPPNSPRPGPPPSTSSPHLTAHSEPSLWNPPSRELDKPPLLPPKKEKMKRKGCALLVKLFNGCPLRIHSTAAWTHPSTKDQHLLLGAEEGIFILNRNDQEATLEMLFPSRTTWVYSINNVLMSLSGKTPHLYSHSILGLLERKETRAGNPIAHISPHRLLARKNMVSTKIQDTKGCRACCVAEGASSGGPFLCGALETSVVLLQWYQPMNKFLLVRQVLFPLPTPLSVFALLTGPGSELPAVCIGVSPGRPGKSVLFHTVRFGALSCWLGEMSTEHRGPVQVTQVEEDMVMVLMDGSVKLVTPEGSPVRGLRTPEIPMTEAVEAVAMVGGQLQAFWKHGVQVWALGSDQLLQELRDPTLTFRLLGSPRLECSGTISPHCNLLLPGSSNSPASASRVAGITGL
Method in brief: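 Ki derived from % activity calculated from the TR-FRET 665/620 ratio, using Eu-anti-pSLP76 and SA-XL665 detection added for 60 min. Reaction: compound preincubated 30 min with full-length double-mutant HPK1, then 60 min with Biotin-SLP-76 and 1 mM ATP, pH 7.5 HEPES buffer.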

[3] = test system: primary human pan T cells; experiment: Human T-cell IL2 Induction Assay; assay type: cell-based; details: anti-CD3/anti-CD28 stimulated, 4 hours
Experimental: Example B3: Human T-cell IL2 Induction Assay
Anti-CD3 and anti-CD28 activates TCR signaling in primary human pan T cells leading to IL-2 promoter induction. Secreted IL-2 in cell culture supernatant is detected by electrochemiluminescence using a capture antibody against IL-2 and an anti-IL-2 antibody labeled with SULFO-tag.
See www.mesoscale.com for additional electrochemiluminescence technology information.
Incubate primary human pan T cells with varying concentrations of test compounds for 30 minutes in a humidified incubator at 37° C. and 5% CO2. Transfer cells to a plate pre-coated with a fixed concentration of anti-human CD3 (determined separately for each donor lot) and add soluble anti-human CD28 (final concentration=1 μg/ml). Stimulate cells in a humidified incubator at 37° C. and 5% CO2 for 4 hours. Transfer 25 μl of supernatant to a MSD single spot plate pre-coated with an anti-human IL-2 antibody. Incubate MSD plate overnight at 4° C. with gentle shaking. Wash MSD plate 4× with wash buffer. Add SULFO-tagged detection antibody at a 1:50 dilution and incubate at room temperature shaking for 2 hours. Wash MSD plate 4× with wash buffer and add 150 μl 2×MSD read buffer. Read on an MSD instrument. Normalize data to stimulated/untreated controls to calculate % activity at each concentration of compound.
• Frozen Primary Human Pan-T Cells (StemCell Technologies #70024) • anti-human CD3 (OKT3 clone) (eBioscience #16-0037-81) • anti-human CD28 (CD28.2 clone) (BD #555725) • 96-well Human IL-2 tissue culture kit (MSD #K151AHB-4) Instrumentation: • Biomek FX for liquid handling (Beckman Coulter) • MSD SECTOR S 600 (Meso Scale Discovery)
Exemplary compounds of Formula (I) were tested in the human T-cell IL-2 induction assays. The % increase measured for IL-2 in cells treated by the test compounds relative to untreated cells are provided in Table B2 for certain compounds.

Sequence of HPK1 (Homo sapiens (Human), UniProt Q92918) (Q92918 1-346): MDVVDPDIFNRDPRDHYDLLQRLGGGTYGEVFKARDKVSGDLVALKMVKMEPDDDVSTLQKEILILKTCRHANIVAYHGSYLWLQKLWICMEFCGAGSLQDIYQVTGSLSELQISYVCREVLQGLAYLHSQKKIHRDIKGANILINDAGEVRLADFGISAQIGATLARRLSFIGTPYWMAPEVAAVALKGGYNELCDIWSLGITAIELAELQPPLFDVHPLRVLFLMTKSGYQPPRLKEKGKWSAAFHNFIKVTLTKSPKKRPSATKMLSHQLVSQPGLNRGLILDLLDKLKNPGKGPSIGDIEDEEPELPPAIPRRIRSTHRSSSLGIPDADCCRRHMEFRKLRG

| Ki [1] [nM] | Ki [2] [nM] | Structure (SMILES) | also measured |
| --- | --- | --- | --- |
| 68 | – | CN1CCC(Cn2cc(Nc3cc4cc(-c5c(Cl)cccc5Cl)ccc4cn3)cn2)C1 (racemic) [Compound 102, (+/-)-6-(2,6-dichlorophenyl)-N-(1-((1-methylpyrrolidin-3-yl)methyl)-1H-pyrazol-4-yl)isoquinolin-3-amine] | – |
| 180 | – | Clc1cccc(Cl)c1-c1ccc2cnc(Nc3cnn(C4CCOC4)c3)cc2c1 (racemic) [Compound 103, (+/-)-6-(2,6-dichlorophenyl)-N-(1-(tetrahydrofuran-3-yl)-1H-pyrazol-4-yl)isoquinolin-3-amine] | – |
| 110 | – | Clc1cccc(Cl)c1-c1ccc2cnc(Nc3ccncn3)cc2c1 [Compound 101, 6-(2,6-dichlorophenyl)-N-(pyrimidin-4-yl)isoquinolin-3-amine] | – |
| 57 | – | Fc1cccc(Cl)c1-c1ccc2cnc(Nc3ccncn3)cc2c1 [Compound 104, 6-(2-chloro-6-fluorophenyl)-N-(pyrimidin-4-yl)isoquinolin-3-amine] | – |
| 6.6 | – | Cc1ccncc1-c1ccc2cnc(Nc3cc(C(F)F)ccn3)cc2c1 [Compound 106, N-(4-(difluoromethyl)pyridin-2-yl)-6-(4-methylpyridin-3-yl)isoquinolin-3-amine] | – |
| 9 | – | Cc1cc(Nc2cc3cc(-c4cnccc4C)ccc3cn2)ncn1 [Compound 107, 6-(4-methylpyridin-3-yl)-N-(6-methylpyrimidin-4-yl)isoquinolin-3-amine] | – |
| 4.4 | – | Cc1ccnc(Nc2cc3cc(-c4cnccc4C)ccc3cn2)c1 [Compound 108, N-(4-methylpyridin-2-yl)-6-(4-methylpyridin-3-yl)isoquinolin-3-amine] | – |
| – | 0.065 | Cc1c(N)cncc1-c1cc2cc(Nc3cc4n(n3)CC(=O)N(C(C)C)CC4)ncc2c(F)c1F [Compound 118, 2-((6-(5-amino-4-methylpyridin-3-yl)-7,8-difluoroisoquinolin-3-yl)amino)-6-isopropyl-5,6-dihydro-4H-pyrazolo[1,5-d][1,4]diazepin-7(8H)-one] | % IL-2 increase relative to untreated cells ([3]; assayed concentration 0.31 μM): 400% |
| – | 0.05 | Cc1c(N)cncc1-c1cc2cc(Nc3cc4n(n3)CC(=O)N(C(C)C)CC4)ncc2cc1F [Compound 119, 2-((6-(5-amino-4-methylpyridin-3-yl)-7-fluoroisoquinolin-3-yl)amino)-6-isopropyl-5,6-dihydro-4H-pyrazolo[1,5-d][1,4]diazepin-7(8H)-one] | % IL-2 increase relative to untreated cells ([3]; assayed concentration 0.10 μM): 542% |
| – | 0.068 | Cc1c(N)cncc1-c1cc2cc(Nc3cc4n(n3)CC(=O)N(C(C)C)CC4)ncc2c(C)c1C#N [Compound 130, 6-(5-amino-4-methyl-3-pyridyl)-3-[(6-isopropyl-7-oxo-5,8-dihydro-4H-pyrazolo[1,5-d][1,4]diazepin-2-yl)amino]-8-methyl-isoquinoline-7-carbonitrile] | % IL-2 increase relative to untreated cells ([3]; assayed concentration 0.10 μM): 308% |
| – | 0.076 | Cc1c(N)cncc1-c1cc2cc(Nc3cc4n(n3)Cc3nncn3CC4)ncc2cc1F [Compound 139, N-(6-(5-amino-4-methylpyridin-3-yl)-7-fluoroisoquinolin-3-yl)-5,6-dihydro-11H-pyrazolo[1,5-d][1,2,4]triazolo[4,3-a][1,4]diazepin-8-amine] | % IL-2 increase relative to untreated cells ([3]; assayed concentration 0.31 μM): 154% |
| – | 0.086 | Cc1c(N)cncc1-c1cc2cc(Nc3cc4n(n3)CC(=O)N(C(C)C)CC4)ncc2cc1Cl [Compound 140, 2-((6-(5-amino-4-methylpyridin-3-yl)-7-chloroisoquinolin-3-yl)amino)-6-isopropyl-5,6-dihydro-4H-pyrazolo[1,5-d][1,4]diazepin-7(8H)-one] | % IL-2 increase relative to untreated cells ([3]; assayed concentration 0.10 μM): 304% |
| – | – | Cc1c(-c2cc3cc(Nc4cc5n(n4)CC(=O)N(C(C)C)C[C@@H]5O)ncc3cc2F)cnc2c1NCCO2 [Compound 141b, (S)-2-((7-fluoro-6-(8-methyl-2,3-dihydro-1H-pyrido[2,3-b][1,4]oxazin-7-yl)isoquinolin-3-yl)amino)-4-hydroxy-6-isopropyl-5,6-dihydro-4H-pyrazolo[1,5-d][1,4]diazepin-7(8H)-one] | % IL-2 increase relative to untreated cells ([3]; assayed concentration 0.31 μM): 350% |
| – | 0.793 | Cc1c(-c2cc3cc(Nc4cc5n(n4)CC(=O)NCC5)ncc3cc2F)cnc2c1NCCOC2 [Compound 230, 2-((7-fluoro-6-(9-methyl-1,2,3,5-tetrahydropyrido[3,2-e][1,4]oxazepin-8-yl)isoquinolin-3-yl)amino)-5,6-dihydro-4H-pyrazolo[1,5-d][1,4]diazepin-7(8H)-one] | – |
| – | 11 | Cc1c(-c2cc3cc(Nc4cc5n(n4)CC(=O)N(C)CC5)ncc3cc2F)cnc2c1CNCCO2 [Compound 232, 2-((7-fluoro-6-(6-methyl-2,3,4,5-tetrahydropyrido[3,2-f][1,4]oxazepin-7-yl)isoquinolin-3-yl)amino)-6-methyl-5,6-dihydro-4H-pyrazolo[1,5-d][1,4]diazepin-7(8H)-one] | – |
| – | 0.155 | Cc1ncc(-c2cc(F)c3cnc(Nc4cc5n(n4)CC(=O)NCC5)cc3c2)c(C)c1N [Compound 233, 2-((6-(5-amino-4,6-dimethylpyridin-3-yl)-8-fluoroisoquinolin-3-yl)amino)-5,6-dihydro-4H-pyrazolo[1,5-d][1,4]diazepin-7(8H)-one] | – |
| – | 0.076 | Cc1c(CC#N)cncc1-c1cc(F)c2cnc(Nc3cc4n(n3)CC(=O)NCC4)cc2c1 [Compound 238, 2-(5-(8-fluoro-3-((7-oxo-5,6,7,8-tetrahydro-4H-pyrazolo[1,5-d][1,4]diazepin-2-yl)amino)isoquinolin-6-yl)-4-methylpyridin-3-yl)acetonitrile] | – |
| – | 0.062 | Cc1c(NCC(F)(F)F)cncc1-c1cc2cc(Nc3cc4n(n3)CC(=O)NCC4)ncc2cc1F [Compound 239, 2-((7-fluoro-6-(4-methyl-5-((2,2,2-trifluoroethyl)amino)pyridin-3-yl)isoquinolin-3-yl)amino)-5,6-dihydro-4H-pyrazolo[1,5-d][1,4]diazepin-7(8H)-one] | – |
| – | 0.014 | Cc1c(-c2cc3cc(Nc4cc5n(n4)CC(=O)N(C)CC5)ncc3cc2F)cnc2c1NCC(C)(C)C2=O [Compound 240, 2-((7-fluoro-6-(4,7,7-trimethyl-8-oxo-5,6,7,8-tetrahydro-1,5-naphthyridin-3-yl)isoquinolin-3-yl)amino)-6-methyl-5,6-dihydro-4H-pyrazolo[1,5-d][1,4]diazepin-7(8H)-one] | – |
| – | 0.013 | Cc1c(-c2cc3cc(Nc4cc5n(n4)CC(=O)N(C)OC5)ncc3cc2F)cnc2c1NCCO2 [Compound 244, 2-((7-fluoro-6-(8-methyl-2,3-dihydro-1H-pyrido[2,3-b][1,4]oxazin-7-yl)isoquinolin-3-yl)amino)-6-methyl-4H,6H-pyrazolo[1,5-e][1,2,5]oxadiazepin-7(8H)-one] | – |

From patent publication US12378249B2, “Isoquinoline compounds and uses thereof” (Genentech, Inc., priority 2018, dated 2025)
